From paper PMC10787398, “Simultaneous determination of colistin sulfate and tigecycline in human plasma by liquid chromatography-tandem mass spectrometry method” (BMC Chemistry, 2024)
Structures can show the parent of a compound that is named as a salt. Where a SMILES comes first, the peptide text is derived from it. Bridges are numbered along the chain shown (N, C = ends). [ ]: non-standard residue; d: D form. The star is where a group is joined. X1 = CC[C@H](C)CCCCC(=O)*; Dab = NCC[C@H](N)C(=O)O

How the values were obtained:
[1] = Stability of analytes in spiked plasma samples under storage conditions; type: in vitro ADME, human; settings: for Measured value, Stored at -80℃ for 7 days / Measured value, Automatic sampler 15℃ for 24 h / Measured value, Freeze-thaw for 3 cycles / Measured value, At 4℃ for 12 h / Measured value, At room temperature for 6 h: HPLC-MS/MS, n = 5; for Measured value, Automatic sampler 15℃ for 24 h: automatic sampler 15 ℃ 24 h; for Measured value, Freeze-thaw for 3 cycles: frozen at -80 °C and thawed at room temperature; for Measured value, At 4℃ for 12 h: refrigerator 4 °C 12 h
Experimental: Plasma samples with low, medium, and high mass concentrations were prepared (the mass concentrations of colistin sulfate were 0.1, 1, and 8 µg/mL, respectively, and those of tigecycline were 0.05, 0.5, and 4 µg/mL, respectively). Five replicates of each concentration were prepared and placed in a refrigerator at 4 °C for 12 h, at room temperature for 6 h, and in an automatic sampler at 15 ℃ for 24 h. The samples were, on three occasions, frozen at − 80 °C and thawed at room temperature, and then placed in a − 80 °C refrigerator for seven days. The concentrations and RSDs of colistin sulfate and tigecycline in the plasma samples were calculated based on the accompanying standard curve of the day to evaluate their stabilities.

[2] = Plasma trough and peak concentrations in patients on intravenous polymyxin and tigecycline (HPLC-MS/MS); settings: human, in vivo, iv, iv
Description: Plasma samples were collected from patients receiving simultaneous intravenous polymyxin and tigecycline treatment. Inclusion criteria: ① Patients receiving simultaneous intravenous polymyxin and tigecycline treatment; ② Age ≥ 18 years; ③ Patients who consent to the monitoring of polymyxin and tigecycline blood drug concentrations during treatment. Exclusion criteria: ① Pregnant or lactating women; ② Treatment duration < 3 days; ③ Local administration; ④ Blood dialysis treatment. Once the blood drug concentration reached a steady state, 3 ml of venous blood was collected before and 30 min after the seventh administration to measure the peak and trough concentrations. This study was conducted with approval from the Ethics Committee of Second Hospital of Hebei Medical University (2020-R551). This study was conducted in accordance with the declaration of Helsinki.
Two hundred microliters of the plasma sample were adopted, with 20 µL of the internal standard added, and it was vortexed for 20 s. Two hundred microliters of 5% trichloroacetic acid was added for acidification and vortexed for 10 s. Two hundred microliters of methanol was added for extraction, vortexed for 2 min, and centrifuged at 10,900 r/min for 5 min. Two hundred microliters of the supernatant were aspirated into the injection bottle, and 10 µL of the sample was injected for the HPLC–MS/MS analysis.
All patients received an initial dose of 100 mg and a maintenance dose of 50 mg q12h for tigecycline. Three milliliters of venous blood were collected before and after the seventh administration to measure the peak and trough concentrations of the drugs.

[3] = within 8 h after administration; no reference given; cited from earlier work
Description: The PK process of the drug in the body is often affected in patients with serious diseases accompanied by microcirculation disorders, hypoproteinemia, liver and kidney insufficiency, and other special pathophysiological states. Large fluctuations in plasma drug concentrations are commonly observed in these cases. TDM can aid in the optimization of administration dosage, individualized dosing, and anti-infective efficacy. Since colistin sulfate has not undergone modern drug development procedures, the current pharmacokinetic data remain unclear, and the plasma concentration is closely correlate ...

[4] = plasma QC high, nominal colistin sulfate 8 µg/mL, tigecycline 4 µg/mL
[5] = plasma QC low, nominal colistin sulfate 0.1 µg/mL, tigecycline 0.05 µg/mL
[6] = plasma QC medium, nominal colistin sulfate 1 µg/mL, tigecycline 0.5 µg/mL

For `CC[C@H](C)CCCCC(=O)N[C@@H](CCN)C(=O)N[C@H](C(=O)N[C@@H](CCN)C(=O)N[C@H]1CCNC(=O)[C@H]([C@@H](C)O)NC(=O)[C@H](CCN)NC(=O)[C@H](CCN)NC(=O)[C@H](CC(C)C)NC(=O)[C@@H](CC(C)C)NC(=O)[C@H](CCN)NC1=O)[C@@H](C)O` [Colistin sulfate, colistin sulfate] (X1-[Dab]T[Dab][Dab][Dab][dL]L[Dab][Dab]T; lactam 4-C), the “Measured value, Stored at -80℃ for 7 days” value (from here on “Measured value, Stored”) ([1]; plasma QC high, nominal colistin sulfate 8 µg/mL, tigecycline 4 µg/mL, -80 °C 7 days) was 8.30 ± 0.32 µg/mL, the “Measured value, Automatic sampler 15℃ for 24 h” value (“Measured value … for 24 h” for short) [1, 4] was 8.17 ± 0.19 µg/mL and the “Measured value, Freeze-thaw for 3 cycles” value [1, 4] was 8.70 ± 0.54 µg/mL. For the same compound, the “Measured value, At 4℃ for 12 h” value [1, 4] was 8.23 ± 0.61 µg/mL, the “Measured value, At room temperature for 6 h” value (“Measured value … for 6 h” below) ([1]; plasma QC high, nominal colistin sulfate 8 µg/mL, tigecycline 4 µg/mL, room temperature 6 h) was 8.26 ± 0.30 µg/mL and the “Measured value, Stored” value ([1]; plasma QC low, nominal colistin sulfate 0.1 µg/mL, tigecycline 0.05 µg/mL, -80 °C 7 days) was 0.10 ± 0.00 µg/mL. The “Measured value … for 24 h” value [1, 5] was 0.10 ± 0.00 µg/mL, the “Measured value, Freeze-thaw for 3 cycles” value [1, 5] was 0.09 ± 0.00 µg/mL and the “Measured value, At 4℃ for 12 h” value [1, 5] was 0.09 ± 0.01 µg/mL. The “Measured value … for 6 h” value ([1]; plasma QC low, nominal colistin sulfate 0.1 µg/mL, tigecycline 0.05 µg/mL, room temperature 6 h) was 0.10 ± 0.00 µg/mL, the “Measured value, Stored” value ([1]; plasma QC medium, nominal colistin sulfate 1 µg/mL, tigecycline 0.5 µg/mL, -80 °C 7 days) was 0.98 ± 0.09 µg/mL and the “Measured value … for 24 h” value [1, 6] was 0.93 ± 0.01 µg/mL. For the same compound, the “Measured value, Freeze-thaw for 3 cycles” value [1, 6] was 1.04 ± 0.04 µg/mL, the “Measured value, At 4℃ for 12 h” value [1, 6] was 0.93 ± 0.04 µg/mL and the “Measured value … for 6 h” value ([1]; plasma QC medium, nominal colistin sulfate 1 µg/mL, tigecycline 0.5 µg/mL, room temperature 6 h) was 1.00 ± 0.05 µg/mL. For the same compound, the “stability under the above conditions” value ([1]; plasma samples, 4 °C 12 h, room temperature 6 h, autosampler 15 ℃ 24 h, 3 freeze-thaw cycles, -80 °C 7 days) was “good stability”, the level at 0.5 h ([2]; both, peak concentration of colistin sulfate, range over patients, 12 adult patients, steady state, after 7th administration, plasma, HPLC-MS/MS) was 890 to 4560 ng/mL and the Cmax ([2]; female, 500000 IU) was 890 ng/mL. The “administered dose excreted in the urine” value [3] was 40%.
